Three molecules from patent US20130165368A1, “ANTIMICROBIAL COMPOUNDS” (priority 2010, published 2013) can be followed below.

Common to all, as to format: cell-based
The subject of test [1] is Staphylococcus aureus (MRSA). The test can be described thus: MIC agar dilution, micro-organism 12 (11939). Conditions: Staphylococcus aureus (MRSA) 11939. The essentials: (§1)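 Twofold dilutions of compound emulsions in water were set in Isosensitest agar with Brazier's CCEY medium, egg yolk and lysed horse blood. Spots of 1 µL from 0.5 McFarland suspensions diluted 1/15 were incubated aerobically at 37 °C and read at 22 and 48 h. MIC (mmol/L) was the lowest concentration giving <10 colonies.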

The subject of another test is Candida albicans. The experiment in a line: MIC agar dilution, micro-organism 19 (90028). Conditions: Candida albicans 90028. The essentials: as §1
For orientation: Agar dilution tests growth on a series of plates holding different concentrations.

Test [2] relates to Enterococcus faecium (VRE) 12185 Clin waste. The experiment in a line: MIC agar dilution, VRE strain 24. As for the experimental part:
(§2) Molar equivalent concentrations were used to allow comparison between compounds of differing molecular mass. Due to weighing difficulties, any compound in solid form was melted in a water bath prior to dilution. To make ten-times strength concentrations, which takes into account agar dilution, 0.0352 mmol of each compound was weighed into plastic universal bottles and 4 mL of sterile distilled water (SDW) was added. To produce a homogenous emulsion the universals were vortexed; once achieved the emulsions were serial diluted by adding 2 mL to 2 mL of SDW.
(§3) For every 100 mL of Isosensitest agar (IST) (CM0471; Oxoid, Basingstoke, England), 3.1 g of the IST powder was added to 100 mL SDW (as per manufacturer's instructions) and sterilised for 15 minutes at 121° C. Once sterilised, the molten agar was cooled to 50° C. in a water-bath. Subsequently 4.8 g of CCEY powder (BC2160; Bioconnections, Wetherby, England), also known as Brazier's medium, was added to 100 mL SDW for every 100 mL of agar needed. This was then sterilised for 15 minutes at 121° C. Once sterilised the molten agar was cooled to 50° C. in a water-bath and 4 mL of egg-yolk emulsion (S2073; TCS Biosciences Ltd, Buckingham, United Kingdom) and 1 mL of lysed defibrinated horse blood (HB035; TCS Biosciences Ltd, Buckingham, United Kingdom) were also added for every 100 mL needed. Horse blood lysis is achieved by dilution to half concentration with SDW; when fully lysed the mixture will turn dark red in colour.
(§4) 18 mL agar was added to each universal and then poured into sterile Petri dishes. This step creates a 1/10 dilution resulting in agar plates of the required strength. Control plates for each set of strains were created by adding 18 mL of agar to 2 mL of SDW.
(§5) Suspensions of each bacterial species were prepared with a density equal to that of a 0.5 McFarland standard using a densitometer. All suspensions were made using sterile distilled water and fresh 18-20 hour cultures. As a 0.5 McFarland standard contains 1.5×10^8 CFU/mL and the multipoint inoculators applies 1 μL spots of liquid, each bacterial suspension was diluted 1/15 (20 μL suspension to 280 μL sterile distilled water).
(§6) Bacterial suspensions were prepared from fresh 18-24 hour cultures as previously described. 1 μL of each strain was inoculated onto all 100 agar plates containing a different chemical concentration and the 2 control plates. This was done using a multipoint inoculator which inoculates 20 strains per plate. All plates were incubated for 22 hours at 37° C. in aerobic conditions.
(§7) Each plate was examined for bacterial growth after 22 and 48 hours, with each being incubated in between examinations. A positive result was recorded as growth of ≧10 colonies. A negative result was recorded as growth of <10 colonies as this is equivalent to 99.9% inhibition. The lowest concentration of chemical that inhibited growth was recorded as the MIC. The results are recorded in Table IV below, where the numbers are quoted in mmol/L.
(§8) Given the positive performance of the ethoxylates of lauryl alcohol in reducing the MIC for a number of the micro-organisms tested, further MIC testing of Laureth-1 [C12E1] through to Laureth-8 [C12E8] was conducted on each of the following: • 10 strains of vancomycin-resistant enterococci (VRE)—listed in Table V below; and • 20 strains of methicillin-resistant Staphylococcus aureus (MRSA)—listed in Table VI.
(§9) The alkanol, alkanol derivatives, agar plates, and inocula were all prepared in the same way as described above.
(§10) The plates were examined in the same manner as described above and the results are recorded in Table VII below, where the numbers are quoted in mmol/L.

For test [3], the system named is Enterococcus faecium (VRE) MB 3137. The experiment in a line: MIC agar dilution, VRE strain 26. As for the experimental part:
as §2, §3, §4, §5, §6, §7, §8, §9, §10

Test [4] relates to Enterococcus faecalis (VRE) MB 1969. The experiment in a line: MIC agar dilution, VRE strain 27. As for the experimental part:
as §2, §3, §4, §5, §6, §7, §8, §9, §10

Test [5] deals with Enterococcus faecium (VRE) NCTC 12952. The experiment in a line: MIC agar dilution, VRE strain 30. How it is done:
as §2, §3, §4, §5, §6, §7, §8, §9, §10

In a further test the test system is MRSA FIN 54518 (E7). The test can be described thus: MIC agar dilution, MRSA strain 31. Conditions: Staphylococcus aureus. How it is done:
as §2, §3, §4, §5, §6, §7, §8, §9, §10

The test system of test [6] is MRSA GER 131/98 (Sger Iidc). The test can be described thus: MIC agar dilution, MRSA strain 35. Conditions: Staphylococcus aureus. As for the experimental part: as §2, §3, §4, §5, §6, §7, §8, §9, §10
Another test concerns MRSA EMRSA 15 19972/98. The test can be described thus: MIC agar dilution, MRSA strain 39. Conditions: Staphylococcus aureus. As for the experimental part: as §2, §3, §4, §5, §6, §7, §8, §9, §10
The test system of another test is MRSA EMRSA 15 21698/98. The test can be described thus: MIC agar dilution, MRSA strain 41. Particulars: Staphylococcus aureus. As for the experimental part:
as §2, §3, §4, §5, §6, §7, §8, §9, §10

For the next test, the system named is MRSA EMRSA 15 1758/98. The test can be described thus: MIC agar dilution, MRSA strain 43. Particulars: Staphylococcus aureus. As for the experimental part: as §2, §3, §4, §5, §6, §7, §8, §9, §10
A further test concerns MRSA EMRSA 16 03732/95. The test can be described thus: MIC agar dilution, MRSA strain 45. Conditions: Staphylococcus aureus. How it is done: as §2, §3, §4, §5, §6, §7, §8, §9, §10
The test system of a further test is MRSA NCTC 11939. The experiment in a line: MIC agar dilution, MRSA strain 50. Conditions: Staphylococcus aureus, MRSA strain 50 NCTC 11939. How it is done:
as §2, §3, §4, §5, §6, §7, §8, §9, §10

The mark [7] stands for this setting: Staphylococcus aureus, MRSA, 22 h, 22 hrs, read-out: MIC.
Where [8] appears, read: Staphylococcus aureus, MRSA, 48 h, 48 hrs, read-out: MIC.

SMILES strings stand for the structures. Values after ≈ are worked out from the molar mass of the structure shown. Read-outs that look alike come from different tables or passages of the source. Bounds are passed on as bounds.

What is called MIC is the least concentration at which growth counts as inhibited. `CCCCCCCCCCCCOCCOCCOCCOCCOCCO` [L5, Pentaethylene Glycol Monododecyl Ether]: the MIC in test [1] (setting [7]) worked out at 110 µM (≈ 44.7 µg/mL); in test [1] (setting [8]), 220 µM (≈ 89.5 µg/mL); in the test with Candida albicans (22 hrs, read-out: MIC), 440 µM (≈ 179 µg/mL); in the test on Candida albicans (48 hrs, read-out: MIC), 440 µM (≈ 179 µg/mL); in test [2] (22 hrs), 220 µM (≈ 89.5 µg/mL); in test [2] (48 hrs), 220 µM (≈ 89.5 µg/mL). Besides, the MIC in [3] (22 hrs) is 440 µM (≈ 179 µg/mL); in test [3] (48 hrs) it was above 880 µM; in test [4] (22 hrs), 220 µM (≈ 89.5 µg/mL); in test [4] (48 hrs), 220 µM (≈ 89.5 µg/mL); in [5] (22 hrs), 220 µM (≈ 89.5 µg/mL); in [5] (48 hrs), 220 µM (≈ 89.5 µg/mL). In addition, the MIC with MRSA FIN 54518 (E7) (22 hrs) was 440 µM (≈ 179 µg/mL); against MRSA FIN 54518 (E7) (48 hrs) it was 440 µM (≈ 179 µg/mL); in [6] (22 hrs), 110 µM (≈ 44.7 µg/mL); in test [6] (48 hrs) it was 110 µM (≈ 44.7 µg/mL); with MRSA EMRSA 15 19972/98 (22 hrs), 110 µM (≈ 44.7 µg/mL); in the test on MRSA EMRSA 15 19972/98 (48 hrs), 110 µM (≈ 44.7 µg/mL). For the same molecule, the minimal inhibitory concentration (MIC) against MRSA EMRSA 15 21698/98 (22 hrs), in the test with MRSA EMRSA 15 21698/98 (48 hrs), against MRSA EMRSA 15 1758/98 (22 hrs), with MRSA EMRSA 15 1758/98 (48 hrs), in the test on MRSA EMRSA 16 03732/95 (22 hrs) and against MRSA EMRSA 16 03732/95 (48 hrs) was 110 µM (≈ 44.7 µg/mL) throughout. For the same molecule, the MIC against MRSA NCTC 11939 (22 hrs) and with MRSA NCTC 11939 (48 hrs) was 110 µM (≈ 44.7 µg/mL) throughout.

In the case of `CCCCCCCCCCCCCOCCOCCOCCOCCOCCOCCO` [C13E6, polyoxyethylene (6) tridecyl alcohol], the MIC in [1] (22 hrs) was 110 µM (≈ 51.1 µg/mL); in test [1] (48 hrs) it was 110 µM (≈ 51.1 µg/mL); in the test on Candida albicans (22 hrs), above 880 µM; in the test with Candida albicans (48 hrs), above 880 µM.

On to `CCCCCCCCCCCCOCCOCCOCCOCCOCCOCCOCCOCCO` [L8, Octaethylene Glycol Monododecyl Ether], for which the MIC was 220 µM (≈ 119 µg/mL) in test [1] (setting [7]); 440 µM (≈ 237 µg/mL) in [1] (setting [8]); above 880 µM with Candida albicans (22 hrs, read-out: MIC); above 880 µM in the test with Candida albicans (48 hrs, read-out: MIC); above 880 µM in test [2] (22 hrs); above 880 µM in [2] (48 hrs). The MIC in [3] (22 hrs), in test [3] (48 hrs), in [4] (22 hrs), in test [4] (48 hrs), in test [5] (22 hrs) and in [5] (48 hrs) was above 880 µM throughout. The MIC against MRSA FIN 54518 (E7) (22 hrs) was above 440 µM; in the test with MRSA FIN 54518 (E7) (48 hrs), above 440 µM; in test [6] (22 hrs), 440 µM (≈ 237 µg/mL); in [6] (48 hrs), above 440 µM; against MRSA EMRSA 15 19972/98 (22 hrs) it was above 440 µM; against MRSA EMRSA 15 19972/98 (48 hrs) it was above 440 µM. The minimum inhibitory concentration (MIC) against MRSA EMRSA 15 21698/98 (22 hrs), with MRSA EMRSA 15 21698/98 (48 hrs), in the test on MRSA EMRSA 15 1758/98 (22 hrs), in the test on MRSA EMRSA 15 1758/98 (48 hrs), with MRSA EMRSA 16 03732/95 (22 hrs) and against MRSA EMRSA 16 03732/95 (48 hrs) was above 440 µM in each case. Also, the minimal inhibitory concentration (MIC) with MRSA NCTC 11939 (22 hrs) and in the test with MRSA NCTC 11939 (48 hrs) was 220 µM (≈ 119 µg/mL) throughout.
